This is an account of results in US9555039B2, “Piperidine derivatives and compositions for the inhibition of nicotinamide phosphoribosyltransferase (NAMPT)” (Forma TM, LLC., priority 2011, dated 2017).

Like-named read-outs stand apart in the source and are kept apart here.

The test system of one assay is A2780 cells. Kind of assay: In-vitro cell proliferation assay (SRB, 72 hours). It is filed as cell-based. The following applies: Homo sapiens, sulforhodamine B (SRB) assay. Summed up:
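Viable cells measured by TCA fixation and SRB staining, absorbance 570 nm; % inhibition vs DMSO control after media-only background subtraction, interpolated between two bracketing concentrations.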

Assay [1] has as its target T1, Recombinant His-tagged NAMPT (Homo sapiens, UniProt P43490).
T1 construct: His; host or cells: E. coli
Kind of assay: Biochemical inhibition assay: NAMPT enzymatic reaction, NMN quantified by mass spectrometry. The note with it: 33 nM NAMPT, 1 μM NAM, 100 μM PRPP, 30 minutes at room temperature, read-out: Biochem IC50. Summed up:
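Reaction 30 min at room temperature with 1 μM NAM, 100 μM PRPP, 2.5 mM ATP (final), quenched with formic acid. NMN quantified by RapidFire electrospray MS, normalized to L-cystathionine; IC50 from percent inhibition versus DMSO.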

T1 sequence (P43490 whole entry): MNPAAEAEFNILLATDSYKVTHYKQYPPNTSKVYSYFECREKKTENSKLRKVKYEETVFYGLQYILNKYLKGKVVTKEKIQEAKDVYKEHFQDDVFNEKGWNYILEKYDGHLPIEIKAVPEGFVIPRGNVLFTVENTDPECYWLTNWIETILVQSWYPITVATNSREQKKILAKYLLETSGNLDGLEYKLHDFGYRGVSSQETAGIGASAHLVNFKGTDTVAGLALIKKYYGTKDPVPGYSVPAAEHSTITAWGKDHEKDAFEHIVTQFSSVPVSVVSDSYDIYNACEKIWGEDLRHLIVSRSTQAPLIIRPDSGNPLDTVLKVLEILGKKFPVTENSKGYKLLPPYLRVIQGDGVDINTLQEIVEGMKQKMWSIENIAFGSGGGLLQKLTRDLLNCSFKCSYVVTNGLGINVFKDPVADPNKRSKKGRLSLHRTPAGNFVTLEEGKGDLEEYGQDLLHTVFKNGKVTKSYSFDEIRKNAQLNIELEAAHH

Take `O=C(NCCCCC1CCN(C(=O)c2ccc(N3CCOCC3)nc2)CC1)c1cc2cnccc2[nH]1` [N-[4-(1-{[6-(morpholin-4-yl)pyridin-3-yl]carbonyl}piperidin-4-yl)butyl]-1H-pyrrolo[3,2-c]pyridine-2-carboxamide]: the results for the IC50 (in the assay on A2780 cells; in assay [1] (2.5 mM ATP)) were 3.4 nM and 64.7 nM, respectively.
For `O=C(NCCCCC1CCN(C(=O)c2ccc3cc[nH]c3c2)CC1)c1cc2cnccc2[nH]1` [N-(4-{1-[(1H-indol-6-yl)carbonyl]piperidin-4-yl}butyl)-1H-pyrrolo[3,2-c]pyridine-2-carboxamide], the values for the IC50 (in the assay on A2780 cells; in assay [1] (2.5 mM ATP)) were 13.4 nM and 52.9 nM, respectively.
For `O=C(NCCCCC1CCN(C(=O)c2ccc(OC(F)(F)F)cc2)CC1)c1cc2cnccc2[nH]1` [N-[4-(1-{[4-(trifluoromethoxy)phenyl]carbonyl}piperidin-4-yl)butyl]-1H-pyrrolo[3,2-c]pyridine-2-carboxamide], in that order: 12.7 nM and 145 nM.
In the case of `O=C(NCCCC1CCN(C(=O)c2ccccc2)CC1)c1cc2cnccc2[nH]1` [N-(3-(1-benzoylpiperidin-4-yl)propyl)-1H-pyrrolo[3,2-c]pyridine-2-carboxamide], the IC50 in the assay with A2780 cells was 432 nM; in assay [1] (2.5 mM ATP), 126 nM.
For `O=C(NCCCCC1CCN(C(=O)c2ccc3nccn3c2)CC1)c1cc2cnccc2[nH]1` [N-{4-[1-({imidazo[1,2-a]pyridin-6-yl}carbonyl)piperidin-4-yl]butyl}-1H-pyrrolo[3,2-c]pyridine-2-carboxamide], in that order: 13.8 nM and 7.7 nM.
For `COc1ccc(C(=O)N2CCC(CCCCNC(=O)c3cc4cnccc4[nH]3)CC2)cc1F` [N-(4-{1-[(3-fluoro-4-methoxyphenyl)carbonyl]piperidin-4-yl}butyl)-1H-pyrrolo[3,2-c]pyridine-2-carboxamide], in that order: 21 nM and 63.1 nM.
Consider `CC(C)c1ncoc1C(=O)N1CCC(CCCCNC(=O)c2ccc3nccn3c2)CC1` [N-[4-(1-{[4-(propan-2-yl)-1,3-oxazol-5-yl]carbonyl}piperidin-4-yl)butyl]imidazo[1,2-a]pyridine-6-carboxamide], for which the IC50 is 8.2 nM in the assay on A2780 cells and 27.5 nM in assay [1] (2.5 mM ATP).
With `O=C(NCCCCC1CCN(C(=O)c2cc3ccccc3s2)CC1)c1cc2ccncc2s1` [N-(4-{1-[(1-benzothiophen-2-yl)carbonyl]piperidin-4-yl}butyl)thieno[2,3-c]pyridine-2-carboxamide], the IC50 in the assay with A2780 cells was 100 to 1000 nM; in assay [1] (2.5 mM ATP) it was 17.7 nM.
Taken in the same sequence, the figures for `O=C(NCCCCC1CCN(C(=O)c2cc3ccccc3[nH]2)CC1)c1cc2cnccc2[nH]1` [N-(4-{1-[(1H-indol-2-yl)carbonyl]piperidin-4-yl}butyl)-1H-pyrrolo[3,2-c]pyridine-2-carboxamide] were 60.3 nM and 125 nM.
Taken in the same sequence, the figures for `COc1ccc(C(=O)N2CCC(CCCCNC(=O)c3ccc4nccn4c3)CC2)cc1` [N-(4-{1-[(4-methoxyphenyl)carbonyl]piperidin-4-yl}butyl)imidazo[1,2-a]pyridine-6-carboxamide] were 57.6 nM and 23.2 nM.
On to `O=C(NCCCCC1CCN(C(=O)c2c(F)cccc2F)CC1)c1cc2ccncc2s1` [N-(4-{1-[(2,6-difluorophenyl)carbonyl]piperidin-4-yl}butyl)thieno[2,3-c]pyridine-2-carboxamide], for which the values for the IC50 (with A2780 cells; in assay [1] (2.5 mM ATP)) were 0.8 nM and 4.3 nM, respectively.
Take `Cn1cc(CC(=O)N2CCC(CCCCNC(=O)c3ccc4nccn4c3)CC2)c2ccccc21` [N-(4-{1-[2-(1-methyl-1H-indol-3-yl)acetyl]piperidin-4-yl}butyl)imidazo[1,2-a]pyridine-6-carboxamide]: the IC50 in the assay with A2780 cells worked out at 21.3 nM; in assay [1] (2.5 mM ATP), 29.5 nM.
Turning to `O=C(NCCCCC1CCN(C(=O)c2ccccc2)CC1)c1ccc2nccn2c1` [N-[4-(1-benzoylpiperidin-4-yl)butyl]imidazo[1,2-a]pyridine-6-carboxamide], the half-maximal inhibitory concentration (IC50) in the assay with A2780 cells stood at 5.7 nM; in assay [1] (2.5 mM ATP), 5.5 nM.
As to `O=C(NCCCCC1CCN(S(=O)(=O)c2ccc(F)cc2)CC1)c1cc2cnccc2[nH]1` [N-(4-{1-[(4-fluorobenzene)sulfonyl]piperidin-4-yl}butyl)-1H-pyrrolo[3,2-c]pyridine-2-carboxamide], the IC50 in the assay on A2780 cells is 17.6 nM; in assay [1] (2.5 mM ATP), 48.9 nM.
Turning to `COc1cccc(OC)c1C(=O)N1CCC(CCCCNC(=O)c2cc3cnccc3[nH]2)CC1` [N-(4-{1-[(2,6-dimethoxyphenyl)carbonyl]piperidin-4-yl}butyl)-1H-pyrrolo[3,2-c]pyridine-2-carboxamide], the IC50 in the assay on A2780 cells turned out to be 1.4 nM; in assay [1] (2.5 mM ATP), 21.5 nM.
As to `O=C(NCCCCC1CCN(C(=O)c2ccc(Cl)cc2Cl)CC1)c1cc2ccncc2s1` [N-(4-{1-[(2,4-dichlorophenyl)carbonyl]piperidin-4-yl}butyl)thieno[2,3-c]pyridine-2-carboxamide], the IC50 with A2780 cells amounted to 86.1 nM; in assay [1] (2.5 mM ATP) it was 41 nM.
For `O=C(NCCCCC1CCN(C(=O)c2ccccc2F)CC1)c1ccc2nccn2c1` [N-(4-{1-[(2-fluorophenyl)carbonyl]piperidin-4-yl}butyl)imidazo[1,2-a]pyridine-6-carboxamide], in that order: 0.5 nM and 3.8 nM.
With `CC(C)Oc1ccc(C(=O)N2CCC(CCCCNC(=O)c3ccc4nccn4c3)CC2)cc1` [N-[4-(1-{[4-(propan-2-yloxy)phenyl]carbonyl}piperidin-4-yl)butyl]imidazo[1,2-a]pyridine-6-carboxamide], the IC50 came to 20.9 nM in the assay with A2780 cells and 55.2 nM in assay [1] (2.5 mM ATP).
For `Cn1ccnc1C(=O)N1CCC(CCCCNC(=O)c2cc3cnccc3[nH]2)CC1` [N-(4-{1-[(1-methyl-1H-imidazol-2-yl)carbonyl]piperidin-4-yl}butyl)-1H-pyrrolo[3,2-c]pyridine-2-carboxamide], in that order: 23.6 nM and 76.5 nM.
Taken in the same sequence, the figures for `COc1ccc(Cl)cc1C(=O)N1CCC(CCCCNC(=O)c2ccc3nccn3c2)CC1` [N-(4-{1-[(5-chloro-2-methoxyphenyl)carbonyl]piperidin-4-yl}butyl)imidazo[1,2-a]pyridine-6-carboxamide] were 3.1 nM and 10.5 nM.
Take `O=C(NCCCCC1CCN(C(=O)c2ccccc2)CC1)c1cc2ccncc2s1` [N-[4-(1-benzoylpiperidin-4-yl)butyl]thieno[2,3-c]pyridine-2-carboxamide]: the IC50 was determined as 1.2 nM in the assay with A2780 cells and 6.3 nM in assay [1] ([…] ATP).
Consider `O=C(NCCCCC1CCN(C(=O)c2ccc3c(c2)OCO3)CC1)c1ccc2nccn2c1` [N-(4-{1-[(2H-1,3-benzodioxol-5-yl)carbonyl]piperidin-4-yl}butyl)imidazo[1,2-a]pyridine-6-carboxamide], for which the IC50 is 29.2 nM in the assay with A2780 cells and 21.3 nM in assay [1] (2.5 mM ATP).
Take `Cc1ccc(C(=O)N2CCC(CCCCNC(=O)c3cc4ccncc4s3)CC2)cc1F` [N-(4-{1-[(3-fluoro-4-methylphenyl)carbonyl]piperidin-4-yl}butyl)thieno[2,3-c]pyridine-2-carboxamide]: the IC50 in the assay on A2780 cells was 100 to 1000 nM; in assay [1] (2.5 mM ATP), 41.7 nM.
Turning to `COCc1ccc(C(=O)N2CCC(CCCCNC(=O)c3cc4cnccc4[nH]3)CC2)nc1` [N-[4-(1-{[5-(methoxymethyl)pyridin-2-yl]carbonyl}piperidin-4-yl)butyl]-1H-pyrrolo[3,2-c]pyridine-2-carboxamide], the figures for the half-maximal inhibitory concentration (IC50) (in the assay with A2780 cells; in assay [1] (2.5 mM ATP)) were 14.2 nM and 31.1 nM, respectively.
Turning to `O=C(NCCCCC1CCN(C(=O)c2cnccc2C(F)(F)F)CC1)c1ccc2nccn2c1` [N-[4-(1-{[4-(trifluoromethyl)pyridin-3-yl]carbonyl}piperidin-4-yl)butyl]imidazo[1,2-a]pyridine-6-carboxamide], the IC50 in the assay on A2780 cells turned out to be 3.8 nM; in assay [1] (2.5 mM ATP), 15.6 nM.
For `O=C(NCCCCC1CCN(C(=O)c2ccccc2OC(F)(F)F)CC1)c1ccc2nccn2c1` [N-[4-(1-{[2-(trifluoromethoxy)phenyl]carbonyl}piperidin-4-yl)butyl]imidazo[1,2-a]pyridine-6-carboxamide], in that order: 1.9 nM and 2.5 nM.
Taken in the same sequence, the figures for `Cn1cc(CC(=O)N2CCC(CCCCNC(=O)c3cc4ccncc4s3)CC2)c2ccccc21` [N-(4-{1-[2-(1-methyl-1H-indol-3-yl)acetyl]piperidin-4-yl}butyl)thieno[2,3-c]pyridine-2-carboxamide] were 24 nM and 11.6 nM.
Regarding `O=C(NCCCCC1CCN(C(=O)c2cnc(C(F)(F)F)nc2)CC1)c1cc2cnccc2[nH]1` [N-[4-(1-{[2-(trifluoromethyl)pyrimidin-5-yl]carbonyl}piperidin-4-yl)butyl]-1H-pyrrolo[3,2-c]pyridine-2-carboxamide], the figures for the IC50 (in the assay on A2780 cells; in assay [1] (2.5 mM ATP)) were 100 to 1000 nM and 242 nM, respectively.
Turning to `COc1ncc(Cl)cc1C(=O)N1CCC(CCCCNC(=O)c2cc3ccncc3s2)CC1` [N-(4-{1-[(5-chloro-2-methoxypyridin-3-yl)carbonyl]piperidin-4-yl}butyl)thieno[2,3-c]pyridine-2-carboxamide], the IC50 in the assay on A2780 cells is 7.1 nM; in assay [1] (2.5 mM ATP), 17 nM.
Consider `Cc1ccc(C(=O)N2CCC(CCCCNC(=O)c3cc4cnccc4[nH]3)CC2)cn1` [N-(4-{1-[(6-methylpyridin-3-yl)carbonyl]piperidin-4-yl}butyl)-1H-pyrrolo[3,2-c]pyridine-2-carboxamide], for which the IC50 is 21.3 nM in the assay with A2780 cells and 65.1 nM in assay [1] (2.5 mM ATP).
For `COc1ccc(C(=O)N2CCC(CCCCNC(=O)c3cc4ccncc4s3)CC2)cc1F` [N-(4-{1-[(3-fluoro-4-methoxyphenyl)carbonyl]piperidin-4-yl}butyl)thieno[2,3-c]pyridine-2-carboxamide], in that order: 100 to 1000 nM and 71.4 nM.
